According to ChEMBL document CHEMBL2331204, “Fluorinated N,N'-diarylureas as AMPK activators” (Bioorg Med Chem Lett, 2013):
Activity calls are given as the source filed them. No cut-off for these calls is given here.

Columns and labels:
[1] = target: 5'-AMP-activated protein kinase catalytic subunit alpha-1 (Homo sapiens) (UniProt Q13131); test: Activation of AMPKalpha in human LS 174T cells assessed as phosphorylation at T172 at 1 to 3 uM by Western blotting analysis relative to urea-3,4-diCl; format: cell-based; settings: LS174T
[2] = tested on: SW480; test: Cytotoxicity against human SW480 cells assessed as growth inhibition after 2 to 4 days; format: functional, cell-based
[3] = tested on: LS174T; test: Cytotoxicity against human LS 174T cells assessed as growth inhibition after 2 to 4 days; format: functional, cell-based
[4] = tested on: LS174T; test: Inhibition of p70S6K in human LS 174T cells assessed as decrease in S6 phosphorylation by Western blotting analysis; format: cell-based
[5] = tested on: LS174T; test: Inhibition of p70S6K phosphorylation in human LS 174T cells by Western blotting analysis; format: cell-based
[6] = target: 5'-AMP-activated protein kinase catalytic subunit alpha-1 (Homo sapiens) (UniProt Q13131); test: Activation of AMPKalpha in human LS 174T cells assessed as phosphorylation at T172 at 1 to 3 uM by Western blotting analysis; format: cell-based; settings: LS174T
[7] = tested on: LS174T; test: Activation of AKT in human LS 174T cells assessed as phosphorylation at Ser473 at 3 uM by Western blotting analysis; format: cell-based

5'-AMP-activated protein kinase catalytic subunit alpha-1 (Homo sapiens), sequence (Q13131 whole entry, looked up): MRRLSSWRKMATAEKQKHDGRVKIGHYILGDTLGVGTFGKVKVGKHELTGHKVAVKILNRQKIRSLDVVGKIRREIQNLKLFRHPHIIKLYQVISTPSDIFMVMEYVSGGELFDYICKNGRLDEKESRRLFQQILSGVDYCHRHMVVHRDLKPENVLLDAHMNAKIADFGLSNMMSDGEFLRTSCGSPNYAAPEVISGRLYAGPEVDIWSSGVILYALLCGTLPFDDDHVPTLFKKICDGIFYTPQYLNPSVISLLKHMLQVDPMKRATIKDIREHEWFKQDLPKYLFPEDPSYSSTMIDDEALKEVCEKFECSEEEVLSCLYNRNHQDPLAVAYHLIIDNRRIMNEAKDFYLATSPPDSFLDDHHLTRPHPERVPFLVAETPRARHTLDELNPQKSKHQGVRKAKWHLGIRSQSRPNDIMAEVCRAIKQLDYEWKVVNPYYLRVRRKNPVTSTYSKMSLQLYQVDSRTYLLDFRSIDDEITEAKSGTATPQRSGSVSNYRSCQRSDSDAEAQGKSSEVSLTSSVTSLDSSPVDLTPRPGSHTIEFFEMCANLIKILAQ

Row | SMILES | fold change (FC) [1] | also measured
1 | O=C(Nc1ccc(OC(F)(F)F)cc1)Nc1ccc(C(F)(F)F)cc1 | 2.37 | –
2 | N#Cc1ccc(NC(=O)Nc2ccc(SC(F)(F)F)cc2)cc1 | 1.05 | –
3 | O=C(Nc1ccc(SC(F)(F)F)cc1)Nc1ccc(SC(F)(F)F)c(Cl)c1 | 0.93 | –
4 | O=C(Nc1ccc(C(F)(F)F)cc1)Nc1cccc(SC(F)(F)F)c1 | 2.16 | –
5 | O=C(Nc1ccc(SC(F)(F)F)cc1)Nc1cc(F)cc(F)c1 | 1.14 | –
6 | O=C(Nc1ccc(SC(F)(F)F)cc1)Nc1cc(F)c(F)cc1F | 1.21 | –
7 | CNC(=O)c1cc(Oc2ccc(NC(=O)Nc3ccc(Cl)c(C(F)(F)F)c3)cc2)ccn1 | – | inhibition [4]: Active; inhibition [5]: Active; Activity [6]: inactive
8 | O=C(Nc1ccc(SC(F)(F)F)cc1)Nc1ccc(Cl)c(Cl)c1 | – | inhibition [4]: Active; Activity [7]: inactive; growth inhibition (GI) [2]: Active; inhibition [5]: Active; growth inhibition (GI) [3]: Active; Activity [6]: Active
9 | O=C(Nc1ccc(OC(F)(F)F)cc1)Nc1cc(F)c(F)c(F)c1F | 0.8 | –
10 | O=C(Nc1ccc(C(F)(F)F)cc1)Nc1cc(F)c(F)c(F)c1 | 4 | –
11 | O=C(Nc1ccc(SC(F)(F)F)cc1)Nc1cccc(F)c1 | 0.74 | –
12 | O=C(Nc1ccc(SC(F)(F)F)cc1)Nc1cc(Cl)cc(Cl)c1 | 1.59 | –
13 | O=C(Nc1ccc(SC(F)(F)F)cc1)Nc1cc(F)c(F)c(F)c1F | 2.48 | –
14 | O=C(Nc1ccc(OC(F)(F)F)cc1)Nc1ccc(SC(F)(F)F)c(Cl)c1 | 2.6 | –
15 | O=C(Nc1ccc(OC(F)(F)F)cc1)Nc1cc(F)c(F)c(F)c1 | 0.99 | –

Further lines, with some results ahead:

Row | fold change (FC) [1] | SMILES | also measured
16 | 2.32 | O=C(Nc1ccc(SC(F)(F)F)cc1)Nc1cc(Cl)c(Cl)c(Cl)c1 | –
17 | 1.05 | O=C(Nc1ccc(SC(F)(F)F)cc1)Nc1ccc(F)c(Cl)c1 | –
18 | 1.19 | O=C(Nc1ccc(SC(F)(F)F)cc1)Nc1ccc(C(F)(F)F)cc1 | –
19 | 1.52 | O=C(Nc1ccc(SC(F)(F)F)cc1)Nc1ccc(F)c(C(F)(F)F)c1 | –
20 | 0.72 | O=C(Nc1ccc(SC(F)(F)F)cc1)Nc1cccc(Cl)c1F | –
21 | 1.94 | O=C(Nc1cc(Cl)cc(Cl)c1)Nc1cccc(SC(F)(F)F)c1 | –
22 | 0.86 | O=C(Nc1ccc(SC(F)(F)F)cc1)Nc1c(F)c(F)c(C(=O)O)c(F)c1F | –
23 | 1.44 | O=C(Nc1ccc(OC(F)(F)F)cc1)Nc1cc(F)cc(F)c1 | –
24 | 2.02 | O=C(Nc1ccc(SC(F)(F)F)cc1)Nc1cc(F)c(F)c(F)c1 | growth inhibition (GI) [2]: Active; growth inhibition (GI) [3]: Active
25 | 1.83 | O=C(Nc1cc(F)cc(F)c1)Nc1cccc(SC(F)(F)F)c1 | –
26 | 0.82 | O=C(Nc1ccc(OC(F)(F)F)cc1)Nc1cc(Cl)cc(Cl)c1 | –
27 | 0.96 | O=C(Nc1ccc(OC(F)(F)F)cc1)Nc1cc(Cl)c(Cl)c(Cl)c1 | –
28 | 1.11 | O=C(Nc1ccc(SC(F)(F)F)cc1)Nc1ccc(F)c(F)c1 | –
29 | 1.64 | O=C(Nc1ccc(SC(F)(F)F)cc1)Nc1ccc(Cl)c(C(F)(F)F)c1 | –
30 | 0.71 | O=C(Nc1ccc(Cl)cc1)Nc1ccc(SC(F)(F)F)cc1 | –
31 | 0.96 | N#Cc1cc(NC(=O)Nc2ccc(SC(F)(F)F)cc2)ccc1F | –
